Data: US9783496B2, “Oxindole compounds, solvent-free synthesis and use thereof” (Council of Scientific & Industrial Research, priority 2013, dated 2017)

Test system: M. smegmatis MC^2 155 strain
Experiment: Antitubercular activity: growth inhibition of M. smegmatis in 96 well microtiter plate (absorbance at 600 nm)
Format: cell-based, Mycobacterium smegmatis
Details: Mycolicibacterium smegmatis, MC^2155, final concentration of compound 30 μM, 32 hrs, determined against DMSO, triplicate, read-out: Percentage inhibition
Experimental: The compounds were tested for their Anti Mycobacterial ability on M. smegmatis MC^2 155 strain. The series of compounds were obtained in 10 mM stock concentrations. Further, each compound was diluted with the required 100% (v/v) DMSO to achieve a working concentration of 1.5 mM. The inoculum for the assay was prepared by reviving a glycerol stock in Middlebrook 7H9 broth supplemented with 0.1% Tween 80 and 0.5% Glycerol. At the time of inoculation, 10% ADS was added to the media and the culture was incubated in a shaker incubator at 37° C. and 200 rpm. The O.D. of the inoculum reached to 0.8-1 approximately, a secondary inoculum was inoculated and subsequently incubated. This was incubated overnight till the O.D. of the inoculum reached 0.4 approx., following which the inoculum was diluted 1:1000 times. In a 96 well microtiter plate, a 2 μL aliquot of the 1.5 mM dilution of compound was added to each well in triplicate, to which 98 μL of inoculum dilution was added, making the final concentration of compound 30 μM. To each plate a set of controls was added to better ascertain the activity of the compounds. These included DMSO, which was taken as a growth control, and media control (Blank) and Rifampicin and Isoniazid, which were taken as positive controls of inhibition of Mycobacterium smegmatis. After the completion of the period of 32 hrs, the absorbance of the inoculum in wells was measured at 600 nm using a Multi Mode Reader. Absorbance is considered directly proportional to the increase in growth of bacteria, thus it gives a measure of the growth of bacteria in each well. Percentage inhibition was determined against DMSO.

Structure (SMILES) | inhibition at 30 µM [%]
CN1C(=O)C(OC(=O)c2cc3ccccc3o2)(C(=O)NC(C)(C)C)c2ccccc21 (stereo not shown) | 26.4
CN1C(=O)C(OC(=O)c2cc3ccccc3[nH]2)(C(=O)NC(C)(C)C)c2ccccc21 (stereo not shown) | 9
CN1C(=O)C(OC(=O)c2ccccn2)(C(=O)NC(C)(C)C)c2ccccc21 (stereo not shown) | 5.24
CCOC(=O)CNC(=O)C1(OC(=O)c2ccccc2)C(=O)N(C)c2ccccc21 (stereo not shown) | 14.7
CN1C(=O)C(OC(=O)/C=C/c2ccccc2)(C(=O)NC(C)(C)C)c2ccccc21 (stereo not shown) | 7.04
COc1ccc(CC(=O)OC2(C(=O)NC(C)(C)C)C(=O)N(C)c3ccccc32)cc1 (stereo not shown) | 44.2
CC(C)NC(=O)C1(OC(=O)c2ccccc2)C(=O)N(C)c2ccccc21 (stereo not shown) | -5.24
CN1C(=O)C(OC(=O)c2ccccc2)(C(=O)NC2CCCCC2)c2ccccc21 (stereo not shown) | -8.02
CN1C(=O)C(OC(=O)c2ccccc2)(C(=O)NC(C)(C)C)c2ccccc21 (stereo not shown) [Compound 4a, 3-(tert-Butylcarbamoyl)-1-methyl-2-oxoindolin-3-yl benzoate] | 18.6
CN1C(=O)C(OC(=O)c2ccccc2F)(C(=O)NC(C)(C)C)c2ccccc21 (stereo not shown) [Compound 4b, 3-(tert-Butylcarbamoyl)-1-methyl-2-oxoindolin-3-yl 2-fluoro benzoate] | 24.6
CN1C(=O)C(OC(=O)c2ccccc2Cl)(C(=O)NC(C)(C)C)c2ccccc21 (stereo not shown) [Compound 4c, 3-(tert-Butylcarbamoyl)-1-methyl-2-oxoindolin-3-yl 2-chloro benzoate] | 42.7
CN1C(=O)C(OC(=O)c2ccccc2Br)(C(=O)NC(C)(C)C)c2ccccc21 (stereo not shown) [Compound 4d, 3-(tert-butylcarbamoyl)-1-methyl-2-oxoindolin-3-yl 2-bromo benzoate] | 17.3
CN1C(=O)C(OC(=O)c2cccc([N+](=O)[O-])c2)(C(=O)NC(C)(C)C)c2ccccc21 (stereo not shown) [Compound 4e, 3-(tert-Butylcarbamoyl)-1-methyl-2-oxoindolin-3-yl 3-nitro benzoate] | -5.24
CN1C(=O)C(OC(=O)c2ccc([N+](=O)[O-])cc2)(C(=O)NC(C)(C)C)c2ccccc21 (stereo not shown) [Compound 4f, 3-(tert-Butylcarbamoyl)-1-methyl-2-oxoindolin-3-yl 4-nitro benzoate] | 21.5
COc1ccc(C(=O)OC2(C(=O)NC(C)(C)C)C(=O)N(C)c3ccccc32)cc1 (stereo not shown) [Compound 4g, 3-(tert-Butylcarbamoyl)-1-methyl-2-oxoindolin-3-yl 4-methoxy benzoate] | 43.5
CN1C(=O)C(OC(=O)c2ccco2)(C(=O)NC(C)(C)C)c2ccccc21 (stereo not shown) [Compound 4h, 3-(tert-Butylcarbamoyl)-1-methyl-2-oxoindolin-3-yl furan-2-carboxylate] | 24.1
CN1C(=O)C(OC(=O)c2cccs2)(C(=O)NC(C)(C)C)c2ccccc21 (stereo not shown) [Compound 4i, 3-(tert-Butylcarbamoyl)-1-methyl-2-oxoindolin-3-yl thiophene-2-carboxylate] | 30.8
CC(=O)OC1(C(=O)NC(C)(C)C)C(=O)N(C)c2ccccc21 (stereo not shown) [Compound 4n, 3-(tert-Butylcarbamoyl)-1-methyl-2-oxoindolin-3-yl acetate] | 19.6
CCC(=O)OC1(C(=O)NC(C)(C)C)C(=O)N(C)c2ccccc21 (stereo not shown) [Compound 4o, 3-(tert-Butylcarbamoyl)-1-methyl-2-oxoindolin-3-yl propionate] | -1.64
CC(C)(C)NC(=O)C1(OC(=O)c2ccccc2)C(=O)N(Cc2ccccc2)c2ccccc21 (stereo not shown) [Compound 4q, 1-Benzyl-3-(tert-Butylcarbamoyl)-2-oxoindolin-3-yl benzoate] | 42.9
C=CCN1C(=O)C(OC(=O)c2ccccc2)(C(=O)NC(C)(C)C)c2ccccc21 (stereo not shown) [Compound 4r, 1-Allyl-3-(tert-Butylcarbamoyl)-2-oxoindolin-3-yl benzoate] | 35.4
CC(C)(C)NC(=O)C1(OC(=O)c2ccccc2)C(=O)Nc2ccccc21 (stereo not shown) [Compound 4s, 3-(tert-Butylcarbamoyl)-2-oxoindolin-3-yl benzoate] | 19.1
CN1C(=O)C(OC(=O)c2ccccc2)(C(=O)NC(C)(C)C)c2cc(F)ccc21 (stereo not shown) [Compound 4u, 3-(tert-Butylcarbamoyl)-5-fluoro-1-methyl-2-oxoindolin-3-yl benzoate] | 5.24
CN1C(=O)C(OC(=O)c2ccccc2)(C(=O)NC(C)(C)C)c2cc(Cl)ccc21 (stereo not shown) [Compound 4v, 3-(tert-Butylcarbamoyl)-5-chloro-1-methyl-2-oxoindolin-3-yl benzoate] | 9.49
CN1C(=O)C(OC(=O)c2ccccc2)(C(=O)NC(C)(C)C)c2cc(Br)ccc21 (stereo not shown) [Compound 4w, 5-Bromo-3-(tert-Butylcarbamoyl)-1-methyl-2-oxoindolin-3-yl benzoate] | 23.4
